In brackets after ≈: the same amount, converted by molar mass. Where two headings read alike, the source gives them in different places.
Tests used:
Assay in all cases: CLSI broth dilution MIC determination
Type in all cases: cell-based
E. coli ATCC 25922 = system: E. coli ATCC 25922
Excerpt: (§1) MIC data was collected for the novel macrolides that this platform has produced against over 21 unique strains of B. subtilis, E. coli, S. aureus, S. pneumoniae, and H. influenzae, including several multidrug-resistant strains, with a special focus on macrolide resistant mechanisms (vide supra). Azithromycin (Azithro) and Solithromycin (Solithro) were included as a control macrolides in many cases. CLSI standard procedures for broth dilution MIC determination were used. […] These genotypes can be constitutive or inducible.

[1] = system: E. coli MP-532 clinical-cErmB
Excerpt: as §1

E. coli MP-541 clinical = system: E. coli MP-541 clinical
Excerpt: as §1

[2] = system: E. coli MP-9 ATCC25922:tolC
Excerpt: as §1

[3] = system: S. aureus (MRSA) MP-513 ST-228 cErm (Clinical-cErm)
Excerpt: as §1

S. aureus ATCC 29213 = S. aureus ATCC 29213 (MP-12)
Excerpt: as §1

[4] = system: S. aureus MP-17 ATCCBAA-977 (BAA 977 iErm); settings: S. aureus MP-17, ATCCBAA-977, iErm
Excerpt: as §1

S. aureus MRSA: USA300 = S. aureus MRSA: USA300 (MP-549, msr(a))
Excerpt: as §1

A. baumannii ATCC 19606 = A. baumannii ATCC 19606 (MP-15)
K. pneumoniae ATCC 10031 = system: K. pneumoniae ATCC 10031
P. aeruginosa ATCC 27853 = P. aeruginosa ATCC 27853 (MP-3)
P. aeruginosa MP-7 PAO1 = system: P. aeruginosa MP-7 PAO1
[5] = system: P. aeruginosa MP-8 PAO1:mex (mex-oprM-deletion)
[6] = system: K. pneumoniae MP-548 clinical
[7] = system: K. pneumoniae MP-546 Clinical-MDR
[8] = system: A. baumannii MP-577 Clinical-AZT low
[9] = system: A. baumannii MP-576 Clinical-MDR
[10] = K. pneumoniae ATCC 10031 (MP-14)
[11] = P. aeruginosa MP-8, PAO1:mex, mex-oprM-deletion
[12] = Escherichia coli, ATCC25922, E. coli ATCC 25922 (MP-4), read-out: MIC
[13] = Escherichia coli, MP541CLINICAL, read-out: MIC
[14] = Staphylococcus aureus, read-out: MIC
[15] = Staphylococcus aureus, ATCC29213, read-out: MIC
[16] = Acinetobacter baumannii, ATCC19606, read-out: MIC
[17] = Klebsiella pneumoniae, ATCC10031, K. pneumoniae ATCC 10031 (MP-14), read-out: MIC
[18] = Pseudomonas aeruginosa, ATCC27853, read-out: MIC
[19] = Pseudomonas aeruginosa, read-out: MIC
[20] = Klebsiella pneumoniae, MP548CLINICAL, read-out: MIC
[21] = Klebsiella pneumoniae, read-out: MIC
[22] = Acinetobacter baumannii, read-out: MIC

Row | SMILES | MIC (E. coli ATCC 25922; [12]) [µg/mL] | MIC ([1]; Escherichia coli) [µg/mL] | MIC (E. coli MP-541 clinical; [13]) [µg/mL] | MIC ([2]; Escherichia coli, ATCC25922) [µg/mL] | MIC [3, 14] [µg/mL] | MIC (S. aureus ATCC 29213; [15]) [µg/mL] | MIC [4, 14] [µg/mL] | MIC (S. aureus MRSA: USA300; [14]) [µg/mL] | MIC (A. baumannii ATCC 19606; [16]) [µg/mL] | MIC (K. pneumoniae ATCC 10031; [17]) [µg/mL] | MIC (P. aeruginosa ATCC 27853; [18]) [µg/mL] | MIC (P. aeruginosa MP-7 PAO1; [19]) [µg/mL] | MIC ([5]; Pseudomonas aeruginosa, PAO1) [µg/mL] | MIC [6, 20] [µg/mL] | MIC [7, 21] [µg/mL] | MIC [8, 22] [µg/mL] | MIC [9, 22] [µg/mL] | further results
1 | CCC1OC(=O)C(C)(F)C(=O)C(C)C(OC2OC(C)CC(N(C)C)C2O)C(C)(OC)CC(C)C(=O)C(C)C2N(CC=C=Cn3cc(-c4ccnc(N)n4)nn3)C(=O)OC12C (stereo not shown) [FSM-22737] | – | – | – | – | – | – | – | – | – | – | – | – | – | – | – | – | – | MIC (E. coli ATCC 25922; E. coli ATCC 25922 (MP-4)): 16 µg/mL (≈ 19 µM); MIC ([1]; E. coli MP-532, clinical-cErmB): >64 µg/mL; MIC (E. coli MP-541 clinical): 16 µg/mL (≈ 19 µM); MIC ([2]; E. coli MP-9, ATCC25922:tolC): 2 µg/mL (≈ 2.37 µM); MIC [3]: >64 µg/mL; MIC (S. aureus ATCC 29213): 0.25 µg/mL (≈ 0.297 µM); MIC [4]: 0.25 µg/mL (≈ 0.297 µM); MIC (S. aureus MRSA: USA300): 0.25 µg/mL (≈ 0.297 µM); MIC (A. baumannii ATCC 19606): 16 µg/mL (≈ 19 µM); MIC (K. pneumoniae ATCC 10031; [10]): 8 µg/mL (≈ 9.49 µM); MIC (P. aeruginosa ATCC 27853): >64 µg/mL; MIC (P. aeruginosa MP-7 PAO1): >64 µg/mL; MIC [5, 11]: 16 µg/mL (≈ 19 µM); MIC [6]: 64 µg/mL (≈ 75.9 µM); MIC [7]: >64 µg/mL; MIC [8]: 32 µg/mL (≈ 38 µM); MIC [9]: >64 µg/mL
2 | CC[C@H]1OC(=O)[C@H](C)C(=O)[C@H](C)[C@@H](O[C@@H]2OC(C)CC(N(C)C)C2O)[C@](C)(OC)C[C@@H](C)C(=O)[C@H](C)[C@H]2N(NCCCn3nc4ccccc4n3)C(=O)O[C@]12C (stereo partly shown) [FSM-140132] | 16 (≈ 20.3 µM) | > 64 | 32 (≈ 40.7 µM) | 2 (≈ 2.54 µM) | > 64 | 0.25 (≈ 0.318 µM) | 0.25 (≈ 0.318 µM) | 0.5 (≈ 0.635 µM) | 32 (≈ 40.7 µM) | 4 (≈ 5.08 µM) | > 64 | > 64 | 8 (≈ 10.2 µM) | 64 (≈ 81.3 µM) | > 64 | 32 (≈ 40.7 µM) | > 64 | –
3 | CC[C@H]1OC(=O)[C@H](C)C(=O)[C@H](C)[C@@H](O[C@@H]2OC(C)CC(N(C)C)C2O)[C@](C)(OC)C[C@@H](C)C(=O)[C@H](C)[C@H]2N(NCCCn3nnc4ccccc43)C(=O)O[C@]12C (stereo partly shown) [FSM-140133] | 16 (≈ 20.3 µM) | > 64 | 16 (≈ 20.3 µM) | 4 (≈ 5.08 µM) | > 64 | 0.25 (≈ 0.318 µM) | 0.25 (≈ 0.318 µM) | 0.5 (≈ 0.635 µM) | 8 (≈ 10.2 µM) | 4 (≈ 5.08 µM) | 64 (≈ 81.3 µM) | 64 (≈ 81.3 µM) | 8 (≈ 10.2 µM) | 64 (≈ 81.3 µM) | > 64 | 64 (≈ 81.3 µM) | > 64 | –
4 | CC[C@H]1OC(=O)[C@@](C)(F)C(=O)[C@H](C)[C@@H](O[C@@H]2OC(C)CC(N(C)C)C2O)[C@](C)(OC)C[C@@H](C)C(=O)[C@H](C)[C@H]2N(CC#CCn3cc(-c4cc(=O)cc[nH]4)nn3)C(=O)O[C@]12C (stereo partly shown) [FSM-100597] | 64 (≈ 75.9 µM) | > 64 | 32 (≈ 38 µM) | 4 (≈ 4.75 µM) | > 64 | 1 (≈ 1.19 µM) | 1 (≈ 1.19 µM) | 2 (≈ 2.37 µM) | 64 (≈ 75.9 µM) | 8 (≈ 9.49 µM) | > 64 | > 64 | 16 (≈ 19 µM) | > 64 | > 64 | > 64 | > 64 | –
5 | CC[C@H]1OC(=O)[C@@](C)(F)C(=O)[C@H](C)[C@@H](O[C@@H]2OC(C)CC(N(C)C)C2O)[C@](C)(OC)C[C@@H](C)C(=O)[C@H](C)[C@H]2N(CC#CCn3cc(-c4cnc(N)s4)nn3)C(=O)O[C@]12C (stereo partly shown) [FSM-100633] | 8 (≈ 9.43 µM) | > 64 | 8 (≈ 9.43 µM) | 1 (≈ 1.18 µM) | 64 (≈ 75.5 µM) | 0.125 (≈ 0.147 µM) | 0.125 (≈ 0.147 µM) | 0.125 (≈ 0.147 µM) | 4 (≈ 4.72 µM) | 2 (≈ 2.36 µM) | 32 (≈ 37.7 µM) | 32 (≈ 37.7 µM) | 4 (≈ 4.72 µM) | 32 (≈ 37.7 µM) | 64 (≈ 75.5 µM) | 16 (≈ 18.9 µM) | > 64 | –
6 | CC[C@H]1OC(=O)[C@@](C)(F)C(=O)[C@H](C)[C@@H](O[C@@H]2OC(C)CC(N(C)C)C2O)[C@](C)(OC)C[C@@H](C)C(=O)[C@H](C)[C@H]2N(CC#CCn3cc(-c4cc(OC)ccn4)nn3)C(=O)O[C@]12C (stereo partly shown) [FSM-100576] | 32 (≈ 37.3 µM) | > 32 | 32 (≈ 37.3 µM) | 2 (≈ 2.33 µM) | > 32 | 0.125 (≈ 0.146 µM) | 0.125 (≈ 0.146 µM) | 0.25 (≈ 0.292 µM) | 16 (≈ 18.7 µM) | 4 (≈ 4.67 µM) | > 32 | > 32 | 8 (≈ 9.33 µM) | > 32 | > 32 | > 32 | > 32 | –
7 | CCC1OC(=O)C(C)(F)C(=O)C(C)C(OC2OC(C)CC(N(C)C)C2O)C(C)(OC)CC(C)C(=O)C(C)C2N(CC=C=Cn3cc(-c4nccc(N)n4)nn3)C(=O)OC12C (stereo not shown) [FSM-22738] | – | – | – | – | – | – | – | – | – | – | – | – | – | – | – | – | – | MIC (E. coli ATCC 25922; E. coli ATCC 25922 (MP-4)): 8 µg/mL (≈ 9.49 µM); MIC ([1]; E. coli MP-532, clinical-cErmB): >64 µg/mL; MIC (E. coli MP-541 clinical): 16 µg/mL (≈ 19 µM); MIC ([2]; E. coli MP-9, ATCC25922:tolC): 1 µg/mL (≈ 1.19 µM); MIC [3]: 32 µg/mL (≈ 38 µM); MIC (S. aureus ATCC 29213): 0.25 µg/mL (≈ 0.297 µM); MIC [4]: 0.25 µg/mL (≈ 0.297 µM); MIC (S. aureus MRSA: USA300): 0.25 µg/mL (≈ 0.297 µM); MIC (A. baumannii ATCC 19606): 8 µg/mL (≈ 9.49 µM); MIC (K. pneumoniae ATCC 10031; [10]): 4 µg/mL (≈ 4.75 µM); MIC (P. aeruginosa ATCC 27853): 64 µg/mL (≈ 75.9 µM); MIC (P. aeruginosa MP-7 PAO1): 64 µg/mL (≈ 75.9 µM); MIC [5, 11]: 8 µg/mL (≈ 9.49 µM); MIC [6]: 64 µg/mL (≈ 75.9 µM); MIC [7]: >64 µg/mL; MIC [8]: 32 µg/mL (≈ 38 µM); MIC [9]: >64 µg/mL
8 | CC[C@H]1OC(=O)[C@@](C)(F)C(=O)[C@H](C)[C@@H](O[C@@H]2OC(C)CC(N(C)C)C2O)[C@](C)(OC)C[C@@H](C)C(=O)[C@H](C)[C@H]2N(CC#CCn3cc(-c4cc(N)nc(N)n4)nn3)C(=O)O[C@]12C (stereo partly shown) [FSM-22742] | 16 (≈ 18.6 µM) | > 64 | 16 (≈ 18.6 µM) | 2 (≈ 2.33 µM) | > 64 | 0.5 (≈ 0.583 µM) | 1 (≈ 1.17 µM) | 1 (≈ 1.17 µM) | 16 (≈ 18.6 µM) | 4 (≈ 4.66 µM) | 64 (≈ 74.6 µM) | 64 (≈ 74.6 µM) | 8 (≈ 9.32 µM) | 64 (≈ 74.6 µM) | > 64 | 32 (≈ 37.3 µM) | > 64 | –

Source: patent publication US10633407B2, “14-membered ketolides and methods of their preparation and use” (President and Fellows of Harvard College, priority 2014, dated 2020)
